How the values were obtained:
quackgrass = experiment: Test F preemergence test; format: in vivo, Elytrigia repens; conditions: scale 0 to 100
How it was run: (§1)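 Preemergence application to planted seeds, or postemergence to sugarcane plants; compound in non-phytotoxic solvent mix plus surfactant. Greenhouse, 14-21 days. Visual rating vs. controls.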

Surinam grass = experiment: Test F preemergence test; format: in vivo, Brachiaria decumbens; conditions: scale 0 to 100
How it was run: as §1

common ragweed = experiment: Test F preemergence test; format: in vivo, Ambrosia elation; conditions: scale 0 to 100
Excerpt: Seeds of plant species selected from bermudagrass (Cynodon dactylon), Surinam grass (Brachiaria decumbens), large crabgrass (Digitaria sanguinalis), green foxtail (Setaria viridis), goosegrass (Eleusine indica), johnsongrass (Sorghum halepense), kochia (Kochia scoparia), pitted morningglory (Ipomoea lacunosa), purple nutsedge (Cyperus rotundus), common ragweed (Ambrosia elation), mustard (Brassica nigra), guineagrass (Panicum maximum), […] (Paspalum dilatatum), barnyardgrass (Echinochloa crus-galli), southern sandbur (Cenchrus echinatus), common sowthistle (Sonchus oleraceous), prickly […] spinosa), Italian ryegrass (Lolium multiflorum), common purslane (Portulaca oleracea), broadleaf signalgrass (Brachiaria platyphylla), common groundsel (Senecio vulgaris), common chickweed (Stellaria media), Virginia dayflower (Commelina virginica), annual bluegrass (Poa annua), naked crabgrass (Digitaria nuda), […] cochinchinensis), quackgrass (Elytrigia repens), Canada horseweed (Conyza canadensis), field bindweed (Convolvulus arvensis), […] (Bidens bipinnata), common mallow (Malva sylvestris), Russian thistle (Salsola kali), and sugarcane (Saccharum officinarum) were planted and treated preemergence with test chemicals formulated in a non-phytotoxic solvent mixture which included a surfactant. At a different time, sugarcane was treated with postemergence applications of some of the test chemicals formulated in the same manner. Plants were approximately 3- to 4-leaf stage for the postemergence treatments. Treated plants and controls were maintained in a greenhouse for 14 to 21 days, after which time all species were compared to controls and visually evaluated. […] A dash (-) response means no test result.

mustard = experiment: Test F preemergence test; format: in vivo, Brassica nigra; conditions: scale 0 to 100
How it was run: as §1

large crabgrass = experiment: Test F preemergence test; format: in vivo, Digitaria sanguinalis; conditions: scale 0 to 100
How it was run: as §1

bermudagrass = experiment: Test F preemergence test; format: in vivo, Cynodon dactylon; conditions: scale 0 to 100
How it was run: as §1

kochia = experiment: Test F preemergence test; format: in vivo, Kochia scoparia; conditions: scale 0 to 100
How it was run: as §1

southern sandbur = experiment: Test F preemergence test; format: in vivo, Cenchrus echinatus; conditions: scale 0 to 100
How it was run: as §1

purple nutsedge = experiment: Test F preemergence test; format: in vivo, Cyperus rotundus; conditions: scale 0 to 100
How it was run: as §1

goosegrass = experiment: Test F preemergence test; format: in vivo, Eleusine indica; conditions: scale 0 to 100
How it was run: as §1

corn = experiment: Test C pre-/postemergence test; format: in vivo, Zea mays
How it was run: (§2)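 Test chemicals were formulated with surfactant in a non-phytotoxic solvent and sprayed both on freshly planted seeds (preemergence) and on 1- to 4-leaf plants of 2–18 cm (postemergence). Flooded-paddy pots received compound directly into 3 cm of standing water, maintained for the test.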

blackgrass = experiment: Test C pre-/postemergence test; format: in vivo, Alopecurus myosuroides
How it was run: as §2

barnyardgrass = experiment: Test F preemergence test; format: in vivo, Echinochloa crus-galli
How it was run: as §1

Italian ryegrass = experiment: Test F preemergence test; format: in vivo, Lolium multiflorum; conditions: scale 0 to 100
How it was run: as §1

woolly cupgrass = experiment: Test C pre-/postemergence test; format: in vivo, Eriochloa villosa; conditions: Preemergence
How it was run: as §2

broadleaf signalgrass = experiment: Test F preemergence test; format: in vivo, Brachiaria platyphylla; conditions: scale 0 to 100
How it was run: as §1

[1] = 62 g ai/ha, Preemergence, scale 0 to 100
[2] = Preemergence, 31 g ai/ha, scale 0 to 100 (0 no effect, 100 complete control)
[3] = preemergence, 125 g ai/ha, scale 0 (no effect) to 100 (complete control)

CC(c1c(C(F)(F)F)nn(C)c1OCC(F)(F)F)S(=O)(=O)c1cccc[n+]1[O-] (racemic) [Compound 33]
65: Plant response rating, Black Mustard (mustard; Preemergence, 31 g ai/ha)
75: Quackgrass plant response rating (quackgrass; 62 g ai/ha, Preemergence) | Ragweed plant response rating (common ragweed; 125 g ai/ha, preemergence) | Plant response rating, Signalgrass (broadleaf signalgrass; Preemergence, 62 g ai/ha)
98: Goosegrass plant response rating (goosegrass; 62 g ai/ha, Preemergence) | Plant response rating (0 to 100), Corn (corn; Preemergence, 250 g ai/ha) | Corn plant response rating (corn; [3]) | Cupgrass, Woolly plant response rating (woolly cupgrass; 62 g ai/ha, scale 0 to 100)
60: Plant response rating, Ragweed (common ragweed; Preemergence, 62 g ai/ha) | Plant response rating, Bermudagrass (bermudagrass; Preemergence, 31 g ai/ha) | Plant response rating, Goosegrass (goosegrass; 16 g ai/ha, preemergence) | Plant response rating, Corn (corn; [2]) | Plant response rating, Ryegrass, Italian (Italian ryegrass; 16 g ai/ha, preemergence)
40: Plant response rating, Ragweed (common ragweed; Preemergence, 31 g ai/ha) | Plant response rating, Bermudagrass (bermudagrass; 16 g ai/ha, preemergence)
90: Corn plant response rating (corn; [1])
50: Plant response rating, Kochia (kochia; Preemergence, 31 g ai/ha)
100: Surinam Grass plant response rating (Surinam grass; 125 g ai/ha, preemergence) | Plant response rating, Surinam Grass (Surinam grass; Preemergence, 31 g ai/ha) | Black Mustard plant response rating (mustard; 62 g ai/ha, Preemergence) | Black Mustard plant response rating (mustard; 125 g ai/ha, preemergence) | Crabgrass, Large plant response rating (large crabgrass; 125 g ai/ha, preemergence) | Bermudagrass plant response rating (bermudagrass; 125 g ai/ha, preemergence) | Kochia plant response rating (kochia; 125 g ai/ha, preemergence) | Plant response rating, Sandbur (southern sandbur; 16 g ai/ha, preemergence) | Sandbur plant response rating (southern sandbur; 125 g ai/ha, preemergence) | Plant response rating, Sandbur (southern sandbur; Preemergence, 62 g ai/ha) | Plant response rating, Sandbur (southern sandbur; Preemergence, 31 g ai/ha) | Goosegrass plant response rating (goosegrass; 125 g ai/ha, preemergence) | Plant response rating (0 to 100), Blackgrass (blackgrass; Preemergence, 250 g ai/ha) | Blackgrass plant response rating (blackgrass; [3]) | Plant response rating, Barnyardgrass (barnyardgrass; 16 g ai/ha, preemergence, scale 0 to 100 (0 no effect, 100 complete control)) | Barnyardgrass plant response rating (barnyardgrass; [1]) | Barnyardgrass plant response rating (barnyardgrass; 125 g ai/ha, preemergence, scale 0 to 100) | Plant response rating, Barnyardgrass (barnyardgrass; Preemergence, 31 g ai/ha, scale 0 to 100) | Ryegrass, Italian plant response rating (Italian ryegrass; 125 g ai/ha, preemergence) | Plant response rating, Ryegrass, Italian (Italian ryegrass; Preemergence, 62 g ai/ha) | Plant response rating, Ryegrass, Italian (Italian ryegrass; Preemergence, 31 g ai/ha) | Plant response rating (0 to 100), Cupgrass, Woolly (woolly cupgrass; 250 g ai/ha)
20: Plant response rating, Surinam Grass (Surinam grass; 16 g ai/ha, preemergence) | Plant response rating, Ragweed (common ragweed; 16 g ai/ha, preemergence)
10: Plant response rating, Black Mustard (mustard; 16 g ai/ha, preemergence)
25: Plant response rating, Quackgrass (quackgrass; Preemergence, 31 g ai/ha)
0: Plant response rating, Quackgrass (quackgrass; 16 g ai/ha, preemergence) | Plant response rating, Kochia (kochia; 16 g ai/ha, preemergence) | Plant response rating, Purple Nutsedge (purple nutsedge; 16 g ai/ha, preemergence)
70: Bermudagrass plant response rating (bermudagrass; 62 g ai/ha, Preemergence) | Kochia plant response rating (kochia; 62 g ai/ha, Preemergence)
35: Plant response rating, Crabgrass, Large (large crabgrass; Preemergence, 31 g ai/ha) | Plant response rating, Purple Nutsedge (purple nutsedge; Preemergence, 31 g ai/ha) | Plant response rating, Signalgrass (broadleaf signalgrass; Preemergence, 31 g ai/ha)
15: Plant response rating, Crabgrass, Large (large crabgrass; 16 g ai/ha, preemergence) | Plant response rating, Signalgrass (broadleaf signalgrass; 16 g ai/ha, preemergence)
80: Plant response rating, Blackgrass (blackgrass; [2]) | Signalgrass plant response rating (broadleaf signalgrass; 125 g ai/ha, preemergence)
95: Quackgrass plant response rating (quackgrass; 125 g ai/ha, preemergence) | Plant response rating, Goosegrass (goosegrass; Preemergence, 31 g ai/ha)
85: Crabgrass, Large plant response rating (large crabgrass; 62 g ai/ha, Preemergence) | Purple Nutsedge plant response rating (purple nutsedge; 62 g ai/ha, Preemergence) | Purple Nutsedge plant response rating (purple nutsedge; 125 g ai/ha, preemergence) | Blackgrass plant response rating (blackgrass; [1]) | Plant response rating, Cupgrass, Woolly (woolly cupgrass; 31 g ai/ha, scale 0 to 100 (0 no effect, 100 complete control))
